Assay results reported in patent US12678412B2, “Substituted tolans for the modulation of microbial colonization” (BioMendics, LLC, priority 2017, dated 2026).
Read-outs that look alike come from different tables or passages of the source.

Experiments:
[1] = tested on: E. coli WP2 uvrA pKM101; format: cell-based; conditions: without metabolic activation
Procedure: A series of dose range finding assays were performed with five bacterial strains, S. typhimurium TA97a, TA98, TA100, TA1535, and E. coli WP2 uvrA pKM101, with and without metabolic activation at three plates per dose. The following doses, along with positive and negative controls, were tested: 5000, 2500, 1250, 500, 250, 125, 50, 20, 10, 5, 2, 1, and 0.2 μg/plate. The plates were evaluated for toxicity (a decrease in plate counts with increasing dose and/or a visible thinning of the background lawn) and for precipitation of the test article. Metabolic activation was included in some samples by adding phenobarbital/benzoflavone-induced rat liver S9 fractions with cofactors (S9 mix). Prior to use, freshly thawed aliquots of rat liver S9 were mixed with a sterile cofactor mix. The S9 mix contains a 10% liver S9 concentration and was refrigerated or stored on ice until used. When testing with metabolic activation, the S9 mix was used in the assay tube in place of phosphate buffer.
Dosing formulations were prepared to deliver all doses in a constant volume of 0.1 mL. The highest dose was prepared from test article weighed to the nearest 0.1 mg and the remaining formulations were prepared as serial dilutions from the high dose stock formulation. Using a permanent marking pen or computer printed labels, assay plates were labeled with the project and study numbers and the date. Assay plates and tubes were labeled with a unique identifier, which was used to match the assay tubes with the properly identified minimal glucose agar plate.
The pre-incubation method was used to perform the assay. The assay mix consisted of 0.1 mL of the test article formulation or control article, 0.5 mL S9 mix or phosphate buffer, and 0.1 mL of bacterial culture. Assay tubes were incubated at 37±1° C. with gentle agitation for 20±1 minutes, then 2.0-2.5 mL top agar was added to the assay mix and the top agar/assay mix poured onto appropriately labeled minimal glucose agar plates. Once the top agar hardened, the plates were inverted and incubated at 37±1° C. for 48±2 hours. Plates were counted with the Sorcerer (v. 2.2)/Ames Study Manager (v. 1.2.4) system from Perceptive Instruments (Suffolk, UK). With this system, plate counts are automatically transferred from the plate imager (Sorcerer) to a Study Manager spreadsheet, and the data are stored in a secure manner on an Oracle database. Some plates were hand counted, e.g., if sample precipitate interferes with automatic counting or toxicity results in the formation of microcolonies, in which case, counts for these plates were entered into the spreadsheet manually. Plates were scored also with the extent of colonization by a post fix code.

[2] = tested on: MRSA USA 400 biofilms; assay: Cell death in an existing biofilm, DAPI/propidium iodide staining; format: cell-based, Staphylococcus aureus; conditions: 24 h treatment; 0.008 mM to 0.125 mM; FIG. 15
Procedure: For the treatment of MRSA USA 400 biofilms, the same 96 well plate assay procedure was used as described in the biofilm inhibition section above. However, the MRSA USA 400 inoculum (10^8 CFU/mL) grew overnight at 37° C. in the absence of BM3103 and without shaking. After 24 h of biofilm formation, BM3103 was serially diluted across a 96 well plate from of 1 mM to 0.002 mM. The plate was incubated again overnight at 37° C. without shaking.
In order to confirm that treatment with BM3103 induced MRSA USA 400 bacterial cell death in the existing biofilm, both untreated cells and cells treated with BM3103 were stained with a combination of DAPI (nuclear stain) and Propidium iodide (PI, Live dead stain) as described in Example 15. MRSA USA 400 were plated in a well plate at 10^8 CFU/mL in combination with BM3103 treatment or no treatment. Plates were placed at 37° C. for 24 h. Bacteria cells were co-stained with DAPI and PI at 50 μg/mL and 500 μg/mL, respectively, for 15 min at room temperature. Wells were washed with warmed phosphate buffered saline (PBS) and maintained in PBS throughout the imaging acquisition process. Images were captured using the same exposure limits for each filter. […] Concentrations above 0.125 mM gave a similar result.

[3] = tested on: NEB 5 α competent E. coli; assay: Bacterial colony forming assay (Examples 6-9); format: cell-based; conditions: for Effect on E. coli colony count: PEG-400/HPβCD mixed into alcohol gel, FIG. 1; for Inhibition of E. coli growth: alcohol gel formulation, FIG. 2
Procedure: NEB 5 α competent E. coli were retrieved from frozen cultures and grown overnight in a bacterial incubator at 37° C. Proliferating cultures of bacteria were used in a colony forming assay by adding 25 μL of bacteria from the overnight culture to 10 mL of fresh Lysogeny Broth (LB; Bertani, G. (2004). “Lysogeny at mid-twentieth century: P1, P2, and other experimental systems”. Journal of Bacteriology. 186 (3): 595-600. PMC 321500. PMID 14729683. doi:10.1128/JR.186.3.595-600.2004). 1 mL of this diluted bacteria was added to various dilutions of formulations of substituted tolan compounds as described in Table C, below and in charts of the corresponding Figures.
One mL of each formulation was mixed with 1 mL of diluted bacteria in LB and put onto agar plates. Alcohol gels were allowed to dry and incubated overnight for 16-18 hrs. Control plates consisted of 2 mL alcohol gel plus 1 mL diluted bacteria, resulting in a colony count of less than 10 colonies, a 1 mL alcohol gel plus 1 mL diluted bacteria, resulting in a partial lawn of bacteria (colonies were too close to count appropriately), 1 mL diluted bacteria alone, resulting in a full lawn of bacteria (no distinguishable colonies), and an appropriate dilution of PEG-400 and HPβCD into 1 mL of alcohol gel plus 1 mL diluted bacteria, resulting in a lawn of bacteria. Plate area was then selected and the Image J colony counter was used to obtain colony counts (Size (pixels squared) 5-1000 and circularity 0.5-1).

Q: With `COc1ccc(C#Cc2ccc(O)cc2)cc1` [BM3103, 4-hydroxy-4′-methoxytolan] as the molecule, how does the Colony forming units/plate ([1]; 20 μg/plate) read?
A: 138.0 colony forming units/plate

Q: What about the Individual colony counts ([1]; 20 μg/plate) of the same molecule?
A: 138

Q: What about the Colony forming units/plate ([1]; 50 μg/plate) of the same molecule?
A: 14.0 colony forming units/plate

Q: What about the Individual colony counts ([1]; 50 μg/plate) of the same molecule?
A: 14

Q: And the Colony forming units/plate ([1]; 125 μg/plate)?
A: 0.0 colony forming units/plate

Q: And the Individual colony counts ([1]; 125 μg/plate)?
A: 0

Q: What about the Colony forming units/plate ([1]; 250 μg/plate) of the same molecule?
A: 0.0 colony forming units/plate

Q: What about the Individual colony counts ([1]; 250 μg/plate) of the same molecule?
A: 0

Q: What about the “Plate postfix code (individual colony counts)” value (from here on “Plate postfix code”) ([1]; 250 μg/plate) of the same molecule?
A: A P

Q: And the Colony forming units/plate ([1]; 500 μg/plate)?
A: 0.0 colony forming units/plate

Q: And the Individual colony counts ([1]; 500 μg/plate)?
A: 0

Q: And the “Plate postfix code” value ([1]; 500 μg/plate)?
A: A P

Q: What about the Colony forming units/plate ([1]; 1250 μg/plate) of the same molecule?
A: 0.0 colony forming units/plate

Q: And the Individual colony counts ([1]; 1250 μg/plate)?
A: 0

Q: What about the Colony forming units/plate ([1]; 2500 μg/plate) of the same molecule?
A: 0.0 colony forming units/plate

Q: And the Individual colony counts ([1]; 2500 μg/plate)?
A: 0

Q: What about the “Plate postfix code” value ([1]; 2500 μg/plate) of the same molecule?
A: A P

Q: And the Colony forming units/plate ([1]; 5000 μg/plate)?
A: 0.0 colony forming units/plate

Q: And the Individual colony counts ([1]; 5000 μg/plate)?
A: 0

Q: And the “Plate postfix code” value ([1]; 5000 μg/plate)?
A: A P

Q: And the “PI staining (cell death) in existing biofilm” value [2]?
A: dose dependent increase in PI staining

Q: And the “Effect on E. coli colony count” value ([3]; 280 μM (62.5 μg/mL) dilution)?
A: reduced the E. coli colony count considerably

Q: And the “Effect on E. coli colony count” value ([3]; 557 μM (125 μg/mL) dilution)?
A: reduced colonization even more

Q: And the “Inhibition of E. coli growth” value ([3]; 2.23 mM (500 μg/mL))?
A: inhibited E. coli growth completely

Q: And the “Inhibition of E. coli growth” value ([3]; 4.45 mM (1000 μg/mL))?
A: inhibited E. coli growth completely
